Experimental data as given in patent US11149018B2, “Substituted N-arylethyl-2-aminoquinoline-4-carboxamides and use thereof” (Bayer Aktiengesellschaft, priority 2017, dated 2021).

Each molecule was assayed against FP receptor (Homo sapiens (Human), UniProt P43088) (assay: In vitro test of inhibition of human FP receptor activity (PGF2α-induced calcium flux in FP-expressing CHEM1 cells)). Details: PGF2α 2 nM, some mean values of multiple determinations.
Assay type: cell-based
Method: B-1. In Vitro Test of Inhibition of Human FP Receptor Activity
For the characterization of test substances in respect of FP antagonism, PGF2α-induced calcium flux in FP-expressing CHEM1 cells (Millipore, HTS093C) was used.
10 μl of the prediluted substance solution are added to the Fluo-8-laden cells and incubated at 37° C., 5% CO2 for 10 minutes. The FP receptor is activated by adding 40 μl of 2 nM (final concentration) PGF2α in calcium-free Tyrode, 2 mM CaCl2, 0.002% SmartBlock, and the calcium flux is determined by measuring the fluorescence at ex. 470 nm/[…].
Table 1 below lists the IC50 values from this assay for individual working examples of the invention (some as mean values from multiple independent individual determinations): […]

Sequence of FP receptor (P43088 whole entry): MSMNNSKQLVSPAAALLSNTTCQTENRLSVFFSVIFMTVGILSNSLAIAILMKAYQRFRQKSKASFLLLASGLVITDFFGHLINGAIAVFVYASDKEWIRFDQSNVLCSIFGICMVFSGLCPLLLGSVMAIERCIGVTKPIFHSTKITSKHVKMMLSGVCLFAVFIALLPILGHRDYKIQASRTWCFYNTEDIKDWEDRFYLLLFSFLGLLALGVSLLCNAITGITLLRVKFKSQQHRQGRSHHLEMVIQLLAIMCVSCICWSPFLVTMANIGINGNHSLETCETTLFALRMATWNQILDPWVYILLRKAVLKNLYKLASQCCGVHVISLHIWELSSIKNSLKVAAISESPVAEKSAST

In order of falling IC50:
1. Cc1c(N2CCCC2)nc2ccc(Br)cc2c1C(=O)NCC(CCC(=O)O)c1c(F)cccc1F (single isomer, unassigned) [Example 248, 5-({[6-Bromo-3-methyl-2-(pyrrolidin-1-yl)quinolin-4-yl]carbonyl}amino)-4-(2,6-difluorophenyl)pentanoic acid]  120 nM
2. Cc1c(N2CCCCC2)nc2ccc(Br)cc2c1C(=O)NCC(CCC(=O)O)c1c(F)cccc1C(F)(F)F (single isomer, unassigned; (+)) [Example 162, (+)-5-({[6-Bromo-3-methyl-2-(piperidin-1-yl)quinolin-4-yl]carbonyl}amino)-4-[2-fluoro-6-(trifluoromethyl)phenyl]pentanoic acid]  42 nM
3. Cc1c(N2CCCC(F)C2)nc2ccc(Br)cc2c1C(=O)NCC(CCC(=O)O)c1cc(F)ccc1F (centres unmarked) [Example 264, 5-[({6-Bromo-2-(3-fluoropiperidin-1-yl)-3-methylquinolin-4-yl}carbonyl)amino]-4-(2,5-difluorophenyl)pentanoic acid]  30 nM
4. Cc1c(N2CCCCCC2)nc2ccc(Br)cc2c1C(=O)NCC(CCC(=O)O)c1c(F)ccc(F)c1Cl (single isomer, unassigned; (+)) [Example 219, (+)-5-({[2-(Azepan-1-yl)-6-bromo-3-methylquinolin-4-yl]carbonyl}amino)-4-(2-chloro-3,6-difluorophenyl)pentanoic acid]  29 nM
5. Cc1c(N2CC=CCC2)nc2ccc(Br)cc2c1C(=O)NCC(CCC(=O)O)c1ccccc1Cl (single isomer, unassigned) [Example 31, 5-({[6-Bromo-2-(3,6-dihydropyridin-1(2H)-yl)-3-methylquinolin-4-yl]carbonyl}amino)-4-(2-chlorophenyl)pentanoic acid]  29 nM
6. CCC1CCCN(c2nc3ccc(Br)cc3c(C(=O)NCC(CCC(=O)O)c3ccccc3OC(F)(F)F)c2C)C1 (single isomer, unassigned; (-)) [Example 207, (−)-5-[({6-Bromo-2-[3-ethylpiperidin-1-yl]-3-methylquinolin-4-yl}carbonyl)amino]-4-[2-(trifluoromethoxy)phenyl]pentanoic acid]  22 nM
7. Cc1c(N2CCCCC2)nc2ccc(Br)cc2c1C(=O)NCC(CCC(=O)O)c1cc(F)ccc1F (racemic) [Example 255, (+/−)-5-({[6-Bromo-3-methyl-2-(piperidin-1-yl)quinolin-4-yl]carbonyl}amino)-4-(2,5-difluorophenyl)pentanoic acid]  20 nM
8. Cc1c(N2CCCC(F)(F)C2)nc2ccc(Br)cc2c1C(=O)NCC(CCC(=O)O)c1ccccc1C(F)(F)F (single isomer, unassigned; (+)) [Example 119, (+)-5-({[6-Bromo-2-(3,3-difluoropiperidin-1-yl)-3-methylquinolin-4-yl]carbonyl}amino)-4-[2-(trifluoromethyl)phenyl]pentanoic acid]  14 nM
9. Cc1c(N2CCCC(F)(F)C2)nc2ccc(Br)cc2c1C(=O)NCC(CCC(=O)O)c1c(F)cccc1C(F)(F)F (racemic) [Example 166, (+/−)-5-({[6-Bromo-2-(3,3-difluoropiperidin-1-yl)-3-methylquinolin-4-yl]carbonyl}amino)-4-[2-fluoro-6-(trifluoromethyl)phenyl]pentanoic acid]  9.5 nM
10. CCC1CCCN(c2nc3ccc(Br)cc3c(C(=O)NCC(CCC(=O)O)c3ccccc3OC(F)(F)F)c2C)C1 (single isomer, unassigned) [Example 206, 5-[({6-Bromo-2-[3-ethylpiperidin-1-yl]-3-methylquinolin-4-yl}carbonyl)amino]-4-[2-(trifluoromethoxy)phenyl]pentanoic acid]  9.5 nM
11. Cc1c(N2CCCC(F)(F)C2)nc2ccc(Br)cc2c1C(=O)NCC(CCC(=O)O)c1c(F)cccc1F (single isomer, unassigned; (-)) [Example 252, (−)-5-({[6-Bromo-2-(3,3-difluoropiperidin-1-yl)-3-methylquinolin-4-yl]carbonyl}amino)-4-(2,6-difluorophenyl)pentanoic acid]  9.4 nM
12. Cc1c(N2CCCCC2)nc2ccc(Br)cc2c1C(=O)NCC(CCC(=O)O)c1cc(F)ccc1Cl (racemic) [Example 5, (+/−)-5-({[6-Bromo-3-methyl-2-(piperidin-1-yl)quinolin-4-yl]carbonyl}amino)-4-(2-chloro-5-fluorophenyl)pentanoic acid]  9.4 nM
13. Cc1c(N2CCCC(F)C2)nc2ccc(Br)cc2c1C(=O)NCC(CCC(=O)O)c1c(F)cccc1C(F)(F)F (centres unmarked) [Example 169, 5-[({6-Bromo-2-[3-fluoropiperidin-1-yl]-3-methylquinolin-4-yl}carbonyl)amino]-4-[2-fluoro-6-(trifluoromethyl)phenyl]pentanoic acid]  9.1 nM
14. Cc1c(N2CCCC(F)(F)C2)nc2ccc(Br)cc2c1C(=O)NCC(CCC(=O)O)c1ccccc1C(F)(F)F (single isomer, unassigned; (-)) [Example 118, (−)-5-({[6-Bromo-2-(3,3-difluoropiperidin-1-yl)-3-methylquinolin-4-yl]carbonyl}amino)-4-[2-(trifluoromethyl)phenyl]pentanoic acid]  8.5 nM
15. Cc1c(N2CCCC(F)C2)nc2ccc(Br)cc2c1C(=O)NCC(CCC(=O)O)c1c(Cl)ccc(Cl)c1Cl (single isomer, unassigned) [Example 221, 5-[({6-Bromo-2-[3-fluoropiperidin-1-yl]-3-methylquinolin-4-yl}carbonyl)amino]-4-(2,3,6-trichlorophenyl)pentanoic acid]  8.4 nM
16. Cc1c(N2CCCC(F)C2)nc2ccc(Br)cc2c1C(=O)NCC(CCC(=O)O)c1ccccc1Cl (single isomer, unassigned; (+)) [Example 188, (+)-5-[({6-Bromo-2-[3-fluoropiperidin-1-yl]-3-methylquinolin-4-yl}carbonyl)amino]-4-(2-chlorophenyl)pentanoic acid]  6.1 nM
17. Cc1c(N2CCCC2)nc2ccc(Br)cc2c1C(=O)NCC(CCC(=O)O)c1c(F)ccc(F)c1Cl (single isomer, unassigned; (+)) [Example 215, (+)-5-({[6-Bromo-3-methyl-2-(pyrrolidin-1-yl)quinolin-4-yl]carbonyl}amino)-4-(2-chloro-3,6-difluorophenyl)pentanoic acid]  3.9 nM
18. Cc1c(N2CCCC(F)(F)C2)nc2ccc(Br)cc2c1C(=O)NCC(CCC(=O)O)c1c(F)ccc(F)c1Cl (racemic) [Example 155, (+/−)-5-({[6-Bromo-2-(3,3-difluoropiperidin-1-yl)-3-methylquinolin-4-yl]carbonyl}amino)-4-(2-chloro-3,6-difluorophenyl)pentanoic acid]  3 nM
19. [2H]C1([2H])N(c2nc3ccc(Br)cc3c(C(=O)NCC(CCC(=O)O)c3ccccc3C(F)(F)F)c2C)C([2H])([2H])C([2H])([2H])C([2H])([2H])C1([2H])[2H] (single isomer, unassigned; (-)) [Example 269, (−)-5-[({6-Bromo-3-methyl-2-[(^2H10)piperidin-1-yl]quinolin-4-yl}carbonyl)amino]-4-[2-(trifluoromethyl)phenyl]pentanoic acid]  2.8 nM
20. Cc1c(N2CCCC(C)C2)nc2ccc(Br)cc2c1C(=O)NCC(CCC(=O)O)c1ccccc1OC(F)(F)F (centres unmarked) [Example 140, 5-[({6-Bromo-3-methyl-2-[3-methylpiperidin-1-yl]quinolin-4-yl}carbonyl)amino]-4-[2-(trifluoromethoxy)phenyl]pentanoic acid]  2.3 nM
21. Cc1c(N2CCCC(F)(F)C2)nc2ccc(Br)cc2c1C(=O)NCC(CCC(=O)O)c1ccccc1OC(F)(F)F (single isomer, unassigned; (-)) [Example 133, (−)-5-({[6-Bromo-2-(3,3-difluoropiperidin-1-yl)-3-methylquinolin-4-yl]carbonyl}amino)-4-[2-(trifluoromethoxy)phenyl]pentanoic acid]  2 nM
22. Cc1c(N2CCCCC2)nc2ccc(Br)cc2c1C(=O)NCC(CCC(=O)O)c1ccccc1OC(F)(F)F (racemic) [Example 126, (+/−)-5-({[6-Bromo-3-methyl-2-(piperidin-1-yl)quinolin-4-yl]carbonyl}amino)-4-[2-(trifluoromethoxy)phenyl]pentanoic acid]  1.7 nM
23. COc1ccccc1C(CCC(=O)O)CNC(=O)c1c(C)c(N2CCCCCC2)nc2ccc(Br)cc12 (single isomer, unassigned; (+)) [Example 239, (+)-5-({[2-(Azepan-1-yl)-6-bromo-3-methylquinolin-4-yl]carbonyl}amino)-4-(2-methoxyphenyl)pentanoic acid]  1.4 nM
24. CCC1CCCN(c2nc3ccc(Br)cc3c(C(=O)NCC(CCC(=O)O)c3ccccc3Cl)c2C)C1 (racemic) [Example 57, (+/−)-5-[({6-Bromo-2-[3-ethylpiperidin-1-yl]-3-methylquinolin-4-yl}carbonyl)amino]-4-(2-chlorophenyl)pentanoic acid]  0.84 nM
25. CCC1CCCN(c2nc3ccc(Br)cc3c(C(=O)NCC(CCC(=O)O)c3ccccc3Cl)c2C)C1 (single isomer, unassigned; (+)) [Example 61, (+)-5-[({6-Bromo-2-[3-ethylpiperidin-1-yl]-3-methylquinolin-4-yl}carbonyl)amino]-4-(2-chlorophenyl)pentanoic acid]  0.83 nM
26. CCC1CCCN(c2nc3ccc(Br)cc3c(C(=O)NCC(CCC(=O)O)c3ccccc3Cl)c2C)C1 (single isomer, unassigned; (+)) [Example 58, (+)-5-[({6-Bromo-2-[3-ethylpiperidin-1-yl]-3-methylquinolin-4-yl}carbonyl)amino]-4-(2-chlorophenyl)pentanoic acid]  0.52 nM
